Data published in patent US4595530A, “Thiodeazapurine derivatives” (Takeda Chemical Industries, Ltd., priority 1983, dated 1986).
In brackets after ≈: the same amount, converted by molar mass.

Key:
L5178Y mouse tumor cells = test: growth inhibition of cultured L5178Y cells; type: cell-based; conditions: 72 hours incubation with drug, cell count vs non-treated control, read-out: IC50 (50% growth inhibitory concentration)
Experimental: 1×10^4 L5178Y mouse tumor cells were suspended in 2 ml of a RPMI-1640 medium containing 10% of bovine fetal serum, 20 μM of 2-mercaptoethanol and 100 μg/ml kanamycin (Nissui Pharmaceutical Co., Ltd. Japan), and incubated at 37° C. for 24 hours before addition of the drug. Using the above culture fluid as a diluent, the compound of Example 1 was diluted 1/4-fold in a series of 5 stages, the maximum concentration of the compound in the medium being 200 μg/ml. The dilutions were further incubated for 72 hours, at the end of which time the cells were counted and the IC50 (50% growth inhibitory concentration) was calculated with the count for the non-treated control group being taken as 100%.

Meth A tumor cells = test: Meth A tumor growth inhibition in mice; type: in vivo; conditions: BALB/c mouse, s.c. transplant, 100 mg/kg i.p. once daily for 14 days from day 4, tumor weight on 35th day
Experimental: 5×10^4 Meth A tumor cells were subcutaneously transplanted into a BALB/c mouse weighing 20 g and starting on the 4th day after transplantation, a solution of the compound of Example 1 in 0.1 ml of distilled water was intraperitoneally injected into the mouse once daily in a dose of 100 mg/kg for 14 consecutive days. On the 35th day after transplantation, the tumor node was enucleated and weighed.

[1] = test system: rat liver tRNA-guanine transglycosylase; test: uptake of compound into tRNA ([3H]-guanine labeled tRNA exchange); type: biochemical; conditions: 0.02 OD260 of compound, 37° C., 17 hours, 0.5 unit enzyme
Experimental: [^3 H]-Guanine labeled tRNA^(*^) (8000 cpm), 70 mM of tris hydrochloride, 60 mM of magnesium chloride, 0.5 unit of rat liver tRNA-guanine transglycosylase and 0.02 OD260 of the compound of Example 1 (which appears hereinafter) (100 μl) were incubated at 37° C. for 17 hours. The reaction mixture was applied to a Whatman 3 MM filter paper (Whatman Co., U.S.A.) and washed 3 times with a 5% aqueous solution of trichloroacetic acid and, then, once each with ethanol/ether (1:1) and ether alone. After drying, the uptake of the test compound was determined in a toluenic scintillation fluid.
^(*^) tRNA with the firstletter (base) of its anticodon labeled with [^3 H]guanine.
The uptake of the compound of Example 2 into tRNA was determined in the same manner as Experimental Example 1. The result was 57%.

IC50 (L5178Y mouse tumor cells) [µg/mL]	uptake of the test compound into tRNA (% of tRNA) [1] [%]	Structure (SMILES)	tumor growth inhibition rate (Meth A tumor cells) [%]
22 (≈ 75 µM)	81	Nc1nc2[nH]cc(CN[C@H]3C=C[C@H](O)[C@@H]3O)c2c(=S)[nH]1 [Example 1, 2-amino-5-[(3S,4R,5S)-4,5-dihydroxycyclopent-1-en-3-ylaminomethy-]pyrrolo[2,3-d]pyrimidine-4-thione]	71
–	57	NCc1c[nH]c2nc(N)[nH]c(=S)c12 [Example 2, 2-amino-5-aminomethylpyrrolo[2,3-d]pyrimidine-4-thione]	–
